The nature of data set [1]: Binding to human liver microsomes via ultracentrifugation. Particulars: human, liver microsomes, read-out: Fraction unbound, HLM. It counts as in vitro ADME. Summed up:
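Unbound fraction by ultracentrifugation: Cunbound measured in protein-free supernate, Ctotal from spiked tubes held at 37 °C, sampled at start and end to check degradation. Matrix was 0.4 mg/mL human liver microsomal protein, 0.1 M phosphate pH 7.4; matrix-matched analysis against one calibration curve.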
In general terms: Liver microsomes are vesicles of endoplasmic reticulum, rich in cytochrome P450 enzymes.

The nature of data set [2]: Plasma protein binding via ultracentrifugation (UC). Conditions: pH 7.4. It counts as in vitro ADME, human. Summed up: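 Unbound fraction from ultracentrifugation of spiked pooled donor plasma, supernate pH checked and sampled for Cunbound. Ctotal and degradation taken from 37 °C control tubes at start and end; all samples mixed 1:1 with blank plasma or pH 7.4 buffer before analysis on shared calibration.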

The nature of data set [3]: Solubility limited absorbable dose (SLAD) calculation with predicted human jejunal Peff. Particulars: for solubility: FaSSIF; for An (absorption number): Peff × tres/R, minimum 1; for SLAD: Ssi × V (500 mL) × Mp; for Permeability classification: based on ref 80 and control compounds; for Predicted human Peff: from Caco-2 Papp via calibration plot. The source says:
Predicted Peff values were obtained from a calibration plot of literature Peff values vs measured Caco-2 Papp using either buffer or plasma as the transport medium (see Results section).

In the next data set the target is CYP3A4 (Homo sapiens, UniProt P08684). The data set can be described thus: in vitro. Particulars: for CYP3A4 (midaz) % inhibition at max conc / CYP3A4 (test) % inhibition at max conc / inhibition at 20 µM: microsomes; for IC50: highest concentration tested 20 µM; for inhibition at 20 µM: human. The gist of the method: (§1)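 HLM + isoform-selective substrate; stop with cold MeCN (diazepam IS); metabolite quantified by LC–MS against calibrants made in quenched microsomal matrix. Readout = % inhibition of metabolite formation relative to no-inhibitor activity.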
Sequence of CYP3A4 (P08684 whole entry, canonical isoform): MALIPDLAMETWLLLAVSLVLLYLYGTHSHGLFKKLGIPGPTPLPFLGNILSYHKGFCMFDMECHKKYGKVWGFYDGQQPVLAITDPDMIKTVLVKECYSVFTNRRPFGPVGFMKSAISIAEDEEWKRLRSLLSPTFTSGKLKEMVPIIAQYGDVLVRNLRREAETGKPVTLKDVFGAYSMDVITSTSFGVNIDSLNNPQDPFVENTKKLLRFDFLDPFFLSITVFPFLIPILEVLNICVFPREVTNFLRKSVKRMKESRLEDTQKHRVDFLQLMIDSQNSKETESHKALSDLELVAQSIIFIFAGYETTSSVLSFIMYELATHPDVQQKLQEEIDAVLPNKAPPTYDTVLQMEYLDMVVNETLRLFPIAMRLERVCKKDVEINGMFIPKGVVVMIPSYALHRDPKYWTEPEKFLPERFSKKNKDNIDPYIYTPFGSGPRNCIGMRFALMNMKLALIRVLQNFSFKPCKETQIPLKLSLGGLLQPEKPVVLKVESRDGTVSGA

The target in a further data set is CYP2C19 (Homo sapiens, UniProt P33261). Briefly: Cytochrome P450 inhibition in human liver microsomes. Particulars: for CYP2C19 % inhibition at max conc: microsomes. The gist of the method: as §1
Sequence of CYP2C19 (P33261 whole entry): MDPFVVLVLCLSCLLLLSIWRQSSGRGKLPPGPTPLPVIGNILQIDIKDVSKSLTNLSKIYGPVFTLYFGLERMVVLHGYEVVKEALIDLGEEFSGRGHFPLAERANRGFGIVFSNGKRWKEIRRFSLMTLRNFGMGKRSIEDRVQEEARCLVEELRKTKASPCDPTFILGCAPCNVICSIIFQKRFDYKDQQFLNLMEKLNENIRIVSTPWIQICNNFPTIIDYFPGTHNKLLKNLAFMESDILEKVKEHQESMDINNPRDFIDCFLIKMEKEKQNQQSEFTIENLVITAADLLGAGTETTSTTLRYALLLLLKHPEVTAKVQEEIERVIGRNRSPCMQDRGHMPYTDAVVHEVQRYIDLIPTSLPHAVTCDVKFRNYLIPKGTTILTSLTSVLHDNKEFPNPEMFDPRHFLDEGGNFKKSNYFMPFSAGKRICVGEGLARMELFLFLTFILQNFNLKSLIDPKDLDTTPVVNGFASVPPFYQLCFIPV
In another data set the target is T1, CYP1A2 (Homo sapiens, UniProt P05177).
T1 sequence (P05177 1-516): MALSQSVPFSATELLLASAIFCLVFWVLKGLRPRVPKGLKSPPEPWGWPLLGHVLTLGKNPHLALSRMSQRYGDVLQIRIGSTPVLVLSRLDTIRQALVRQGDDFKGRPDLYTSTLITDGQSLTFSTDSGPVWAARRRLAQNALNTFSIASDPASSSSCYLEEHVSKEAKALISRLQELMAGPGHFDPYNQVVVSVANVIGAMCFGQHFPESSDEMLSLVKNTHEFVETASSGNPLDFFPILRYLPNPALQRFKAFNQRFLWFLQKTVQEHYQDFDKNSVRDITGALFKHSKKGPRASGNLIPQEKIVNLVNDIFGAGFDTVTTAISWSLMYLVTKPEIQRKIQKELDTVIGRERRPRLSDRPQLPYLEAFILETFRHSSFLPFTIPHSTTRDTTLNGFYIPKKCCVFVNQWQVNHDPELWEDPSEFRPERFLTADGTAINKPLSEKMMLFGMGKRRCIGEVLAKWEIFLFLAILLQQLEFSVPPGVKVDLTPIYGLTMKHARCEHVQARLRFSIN
The description is as above. Particulars: for CYP1A2 % inhibition at max conc: microsomes. Summed up: as §1

The target of a further data set is CYP2C9 (Homo sapiens, UniProt P11712). Described as above. Summed up: as §1
Sequence of CYP2C9 (P11712 whole entry): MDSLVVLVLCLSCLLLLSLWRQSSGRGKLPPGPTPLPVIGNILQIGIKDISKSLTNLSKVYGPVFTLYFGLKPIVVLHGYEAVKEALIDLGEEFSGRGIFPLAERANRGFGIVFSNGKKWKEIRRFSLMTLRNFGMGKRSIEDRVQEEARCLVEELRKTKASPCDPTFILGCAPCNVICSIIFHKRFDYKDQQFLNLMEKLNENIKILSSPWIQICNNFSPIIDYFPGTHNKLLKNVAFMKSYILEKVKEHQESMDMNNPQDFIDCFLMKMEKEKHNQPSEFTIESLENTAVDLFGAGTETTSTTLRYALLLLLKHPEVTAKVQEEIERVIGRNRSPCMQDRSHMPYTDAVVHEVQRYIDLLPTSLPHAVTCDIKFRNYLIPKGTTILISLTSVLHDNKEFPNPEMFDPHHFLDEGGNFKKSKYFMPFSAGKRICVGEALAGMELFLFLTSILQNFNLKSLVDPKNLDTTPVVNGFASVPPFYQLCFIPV
The next data set has as its target CYP2D6 (Homo sapiens, UniProt P10635). The description is as above. Particulars: for CYP2D6 % inhibition at max conc: microsomes. Summed up: as §1
A short description of data set [4]: Octanol/pH 7.4 buffer partition coefficient, shake flask. Conditions: pH 7.4. The gist of the method:
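Both phases were measured by LC-MS, the aqueous phase after re-centrifugation, and the partition coefficient was taken as the octanol-to-buffer concentration ratio over two sampling times. Equal volumes of octanol, holding compound at two dilutions of a 3-30 mg/mL stock, and pH 7.4 phosphate/NaCl buffer were mixed at 37 °C.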

The mark [5] stands for this setting: human, neat pooled plasma, ultracentrifugation, neat plasma, read-out: Fraction unbound, human plasma.
[6] abbreviates: CYP3A4 (midaz) IC50, human liver microsomes, CYP3A4 (midaz).
[7] abbreviates: CYP3A4 (test) IC50, human liver microsomes, CYP3A4 (test).

Converted amounts (≈) assume the structure as drawn. Bounds are passed on as bounds.

Sequence of CYP2D6 (P10635 whole entry): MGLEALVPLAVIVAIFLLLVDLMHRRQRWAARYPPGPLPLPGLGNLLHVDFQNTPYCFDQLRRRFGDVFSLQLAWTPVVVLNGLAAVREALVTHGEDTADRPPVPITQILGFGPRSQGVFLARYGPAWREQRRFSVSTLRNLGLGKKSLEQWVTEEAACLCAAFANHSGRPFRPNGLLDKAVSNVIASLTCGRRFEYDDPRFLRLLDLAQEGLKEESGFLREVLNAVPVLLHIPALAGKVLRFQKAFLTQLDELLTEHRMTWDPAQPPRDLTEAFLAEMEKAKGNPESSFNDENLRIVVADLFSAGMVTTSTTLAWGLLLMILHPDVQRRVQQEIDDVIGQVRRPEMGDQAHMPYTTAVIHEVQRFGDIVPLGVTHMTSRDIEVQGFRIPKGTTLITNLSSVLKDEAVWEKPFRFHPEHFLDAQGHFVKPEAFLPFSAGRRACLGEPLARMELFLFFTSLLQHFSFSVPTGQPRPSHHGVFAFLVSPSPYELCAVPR

A word on the solubility: it is the concentration that dissolves in the medium under given conditions. What is called IC50 is the concentration that gives 50% inhibition. Low values mean greater potency in that assay, high ones weaker potency in that assay. The term inhibition denotes the drop in the measured response relative to a control, in per cent. A high value points to strong suppression. One may read the logD as lipophilicity at a set pH, counting ionised and neutral species. A low value points to lower lipophilicity. For `O=C1C(O)=C([C@H]2CC[C@H](c3ccc(Cl)cc3)CC2)C(=O)c2ccccc21` [Atovaquone], the fraction unbound at […] in data set [1] (pH 7.4, 0.4 mg/mL protein) is about 0.002. In [2] (setting [5]), the fraction unbound at […] was 0.002. In data set [3], the solubility is 1.83 µg/mL (≈ 4.99 µM), the “An (absorption number)” value is given as 13, the SLAD is given as 12 mg and the Permeability classification result was “High (> 85% absorption (high))”. In addition, the “Predicted human Peff” value in [3] is 11 10^−4 cm/s. Besides, on CYP3A4, the “CYP3A4 (midaz) % inhibition at max conc” value is “nmi” and the “CYP3A4 (test) % inhibition at max conc” value is “nmi”. Moreover, on CYP2C19, the IC50 was over 20 µM and the “CYP2C19 % inhibition at max conc” value is “nmi”. On CYP1A2, the IC50 was over 20 µM and the “CYP1A2 % inhibition at max conc” value is reported as “nmi”. The IC50 against CYP2C9 was over 20 µM. In addition, the inhibition at 20 µM on CYP2C9 (human, microsomes, pH 7.4) came to 26%. In addition, on CYP2D6, the IC50 was over 20 µM and the “CYP2D6 % inhibition at max conc” value is reported as “nmi”. The compound further showed a logD in data set [4] (octanol/pH 7.4 buffer) of 5.3.

On to `CO[C@H]1O[C@@H]2O[C@@]3(C)CC[C@H]4[C@H](C)CC[C@@H]([C@H]1C)[C@@]24OO3` [Artemether], for which the fraction unbound at […] in data set [1] (pH 7.4, 0.4 mg/mL protein) worked out at 0.5 ± 0.052. Also, the fraction unbound at […] in [2] (setting [5]) turned out to be 0.1. For the same compound, in data set [3], the solubility is 166 µg/mL (≈ 556 µM), the “An (absorption number)” value is recorded as 4.7, the SLAD is 388 mg and the Permeability classification entry is given as “High (> 85% absorption (high))”. Besides, in data set [3], the “Predicted human Peff” value is 3.9 10^−4 cm/s. In addition, the half-maximal inhibitory concentration (IC50) at CYP3A4 (setting [6]) is over 20 µM. This compound registered an IC50 against CYP3A4 (setting [7]) of over 20 µM. The inhibition at 20 µM against CYP3A4 (pH 7.4, CYP3A4 (midaz) % inhibition at max conc) was determined as 39%. Further, the inhibition at 20 µM at CYP3A4 (pH 7.4, CYP3A4 (test) % inhibition at max conc) worked out at 37%. Besides, at CYP2C19, the IC50 is over 20 µM and the “CYP2C19 % inhibition at max conc” value is reported as “nmi”. In addition, on CYP1A2, the IC50 is over 20 µM and the “CYP1A2 % inhibition at max conc” value is “nmi”. At CYP2C9, this compound displayed an IC50 of over 20 µM. In addition, on CYP2C9 (microsomes), the “CYP2C9 % inhibition at max conc” value is “nmi”. On CYP2D6, the IC50 was over 20 µM and the “CYP2D6 % inhibition at max conc” value is “nmi”. This compound also registered a logD in data set [4] (octanol/pH 7.4 buffer) of 3.7.

As a reminder, the Ki is the dissociation constant of the complex between target and ligand, obtained from inhibition or displacement. For the compound `C[C@H]1[C@@H](O)O[C@@H]2O[C@@]3(C)CC[C@H]4[C@H](C)CC[C@@H]1[C@@]24OO3` [Dihydroartemisinin], the fraction unbound at […] was 0.87 ± 0.1 in data set [1] (pH 7.4, instability evident, estimate only); 0.21 ± 0.01 in [2] (human, pooled plasma, ultracentrifugation, instability evident, estimate only, read-out: Fraction unbound, human plasma); 0.21 in data set [2] (human plasma, fraction unbound, read-out: Plasma fu). For the same compound, the “An (absorption number)” value in [3] is recorded as 5.2. In addition, the SLAD in data set [3] is on record as 413 mg. The Permeability classification entry in data set [3] is “High (> 85% absorption (high))”. Further, the “Predicted human Peff” value in data set [3] was 4.4 10^−4 cm/s. For the same compound, the IC50 against CYP3A4 (setting [6]) was over 20 µM; on CYP3A4 (setting [7]), over 20 µM; against CYP2C19 it was over 20 µM; against CYP1A2, 11 µM; against CYP2C9, over 20 µM; at CYP2D6, over 20 µM. Further, at CYP3A4, the “CYP3A4 (midaz) % inhibition at max conc” value is recorded as “nmi”. Moreover, on CYP3A4, the “CYP3A4 (test) % inhibition at max conc” value was “nmi”. The “CYP2C19 % inhibition at max conc” value at CYP2C19 is “nmi”. Moreover, affinity on CYP1A2 was put at a Ki of 6.2 µM. Also, the “CYP2C9 % inhibition at max conc” value on CYP2C9 (microsomes) was “nmi”. On CYP2D6, the “CYP2D6 % inhibition at max conc” value is recorded as “nmi”. The logD in data set [4] (octanol/pH 7.4 buffer) and in data set [4] (octanol/pH 7.4 phosphate buffered saline) was 2.3 throughout.

(Values after paper PMC6941357, “An in vitro toolbox to accelerate anti-malarial drug discovery and development” (Malaria Journal, 2020).)
